The text below walks through data of patent publication US10023570B2 (Array BioPharma, Inc., priority 2015, dated 2018).

The IC50 is the point on the concentration scale where inhibition reaches its midpoint.

Counter-ions that a name gives are not always drawn. Like-named read-outs stand apart in the source and are kept apart here.

In assay [1] the target is human KDR protein in HEK-293 cells (Homo sapiens (Human), UniProt P35968). Nature of the assay: KDR Cell Assay (phospho-KDR in HEK-293 cells expressing inducible KDR). Format: cell-based. To be noted: pKDR Cell HEK 10% FBS IC50, HEK-293 cells expressing inducible KDR, VEGF stimulated, 10% FBS. In a few lines: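 HEK-293 cells with inducible human KDR were treated with compound for 1 h in DMEM (0.25% DMSO final), then lysed. Phospho-KDR was quantified by Meso Scale immunoassay, expressed as percent of control, and IC50 taken where a 4-parameter logistic fit crossed 50 POC.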

Assay [2] concerns the target N-terminal GST tagged recombinant human RET cytoplasmic domain (aa 658-end), wild type RET kinase (Homo sapiens (Human), UniProt P07949). In words: RET Enzyme Assay (HTRF KinEASE-TK), wild type RET. Type of assay: biochemical. Background: Time-resolved FRET reads energy transfer from a long-lived donor to a nearby acceptor.
In assay [3] the target is Kif5b-RET fusion protein in HEK-293 cells (Homo sapiens, UniProt P07949). Nature of the assay: cell-based. To be noted: read-out: KIF5B-RET pTYR1062 Cell IC50.
Setting [4] is: HEK-293 cells expressing Kif5b-RET, phospho-RET(Tyr1062).

N-terminal GST tagged recombinant human RET cytoplasmic domain (aa 658-end), wild type RET kinase, sequence (P07949 658-1114): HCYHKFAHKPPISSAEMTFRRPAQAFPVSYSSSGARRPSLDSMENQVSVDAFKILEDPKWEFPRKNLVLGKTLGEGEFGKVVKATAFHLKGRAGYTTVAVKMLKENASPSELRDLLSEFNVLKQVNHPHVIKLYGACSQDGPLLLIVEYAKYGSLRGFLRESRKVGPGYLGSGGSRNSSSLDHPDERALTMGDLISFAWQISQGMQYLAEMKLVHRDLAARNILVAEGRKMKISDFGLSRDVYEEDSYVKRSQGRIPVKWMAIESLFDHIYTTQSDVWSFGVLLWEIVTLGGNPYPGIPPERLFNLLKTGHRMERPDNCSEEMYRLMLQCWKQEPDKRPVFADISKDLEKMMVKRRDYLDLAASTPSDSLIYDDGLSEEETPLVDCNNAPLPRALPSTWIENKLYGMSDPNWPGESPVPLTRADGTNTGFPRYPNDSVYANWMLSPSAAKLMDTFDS
Kif5b-RET fusion protein in HEK-293 cells, sequence (P07949 29-1114 limits assumed): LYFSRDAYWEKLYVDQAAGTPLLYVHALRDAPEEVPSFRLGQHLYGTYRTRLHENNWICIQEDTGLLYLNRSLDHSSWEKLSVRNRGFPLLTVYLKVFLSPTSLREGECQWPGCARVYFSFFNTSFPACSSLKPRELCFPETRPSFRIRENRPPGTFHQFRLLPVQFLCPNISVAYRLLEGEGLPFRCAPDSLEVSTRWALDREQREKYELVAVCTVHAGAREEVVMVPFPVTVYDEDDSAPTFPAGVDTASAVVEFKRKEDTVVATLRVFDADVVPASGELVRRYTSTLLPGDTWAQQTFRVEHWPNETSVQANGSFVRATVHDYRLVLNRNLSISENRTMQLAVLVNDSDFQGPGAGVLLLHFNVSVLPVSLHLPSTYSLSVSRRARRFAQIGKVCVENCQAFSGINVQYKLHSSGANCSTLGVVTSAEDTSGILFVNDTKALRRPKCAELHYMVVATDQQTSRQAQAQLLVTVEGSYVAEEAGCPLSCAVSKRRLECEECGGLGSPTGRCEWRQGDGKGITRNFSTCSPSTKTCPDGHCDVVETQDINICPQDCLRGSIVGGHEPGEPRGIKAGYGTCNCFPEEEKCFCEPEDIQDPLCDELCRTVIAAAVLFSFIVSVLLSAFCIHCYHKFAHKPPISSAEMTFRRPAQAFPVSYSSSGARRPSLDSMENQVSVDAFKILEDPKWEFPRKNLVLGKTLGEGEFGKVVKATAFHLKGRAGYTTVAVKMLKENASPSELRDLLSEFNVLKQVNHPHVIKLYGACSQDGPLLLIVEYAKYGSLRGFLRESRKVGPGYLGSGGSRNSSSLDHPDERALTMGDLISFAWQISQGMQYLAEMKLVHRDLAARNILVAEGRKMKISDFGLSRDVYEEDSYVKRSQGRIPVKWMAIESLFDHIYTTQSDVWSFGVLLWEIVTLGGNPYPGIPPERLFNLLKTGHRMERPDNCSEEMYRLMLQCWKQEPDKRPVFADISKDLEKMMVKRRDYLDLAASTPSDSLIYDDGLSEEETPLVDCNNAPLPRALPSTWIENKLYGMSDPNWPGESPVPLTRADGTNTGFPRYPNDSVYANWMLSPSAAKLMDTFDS
human KDR protein in HEK-293 cells, sequence (P35968 20-1356): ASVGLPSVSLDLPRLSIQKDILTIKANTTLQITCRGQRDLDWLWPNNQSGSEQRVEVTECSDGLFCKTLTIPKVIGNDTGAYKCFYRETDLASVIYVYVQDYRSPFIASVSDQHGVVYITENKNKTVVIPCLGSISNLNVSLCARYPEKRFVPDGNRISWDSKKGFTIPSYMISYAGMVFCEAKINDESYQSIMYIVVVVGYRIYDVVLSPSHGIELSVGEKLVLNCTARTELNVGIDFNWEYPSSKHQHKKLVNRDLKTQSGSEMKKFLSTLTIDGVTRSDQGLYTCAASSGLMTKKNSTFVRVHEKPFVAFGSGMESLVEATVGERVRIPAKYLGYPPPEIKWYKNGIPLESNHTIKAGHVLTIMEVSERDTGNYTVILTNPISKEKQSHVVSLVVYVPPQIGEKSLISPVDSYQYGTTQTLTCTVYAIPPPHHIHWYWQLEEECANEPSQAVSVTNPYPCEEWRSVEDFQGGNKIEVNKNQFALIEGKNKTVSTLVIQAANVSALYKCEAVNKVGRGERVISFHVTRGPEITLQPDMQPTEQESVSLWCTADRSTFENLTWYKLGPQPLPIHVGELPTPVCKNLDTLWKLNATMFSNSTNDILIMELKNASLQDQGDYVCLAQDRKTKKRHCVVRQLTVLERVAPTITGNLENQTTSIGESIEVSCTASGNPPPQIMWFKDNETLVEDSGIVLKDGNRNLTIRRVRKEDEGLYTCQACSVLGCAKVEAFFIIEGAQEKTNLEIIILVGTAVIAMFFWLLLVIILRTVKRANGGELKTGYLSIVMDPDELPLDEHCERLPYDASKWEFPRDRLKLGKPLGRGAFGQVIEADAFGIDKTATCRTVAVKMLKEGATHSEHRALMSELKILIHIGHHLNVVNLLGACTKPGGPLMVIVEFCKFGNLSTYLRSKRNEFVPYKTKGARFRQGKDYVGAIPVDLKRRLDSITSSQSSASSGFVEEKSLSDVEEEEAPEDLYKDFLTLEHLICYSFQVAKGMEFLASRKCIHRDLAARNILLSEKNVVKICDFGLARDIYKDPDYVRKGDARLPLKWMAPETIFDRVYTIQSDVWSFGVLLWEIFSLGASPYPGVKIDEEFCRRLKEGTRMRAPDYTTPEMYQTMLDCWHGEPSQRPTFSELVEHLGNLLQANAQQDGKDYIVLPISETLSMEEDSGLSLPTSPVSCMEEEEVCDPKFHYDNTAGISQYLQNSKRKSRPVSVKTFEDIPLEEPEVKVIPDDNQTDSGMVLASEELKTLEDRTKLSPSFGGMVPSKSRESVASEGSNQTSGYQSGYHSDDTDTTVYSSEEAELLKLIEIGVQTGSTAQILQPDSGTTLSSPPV

Turning to `Cn1cc(-c2cc(-c3ccc(N4CCN(C(=O)NC(C)(C)C)CC4)nc3)c3c(C#N)cnn3c2)cn1` [Example 128, N-(tert-butyl)-4-(5-(3-cyano-6-(1-methyl-1H-pyrazol-4-yl)pyrazolo[1,5-a]pyridin-4-yl)pyridin-2-yl)piperazine-1-carboxamide], the IC50 in assay [1] was 555 nM; in assay [2] (wild type RET, 1 mM ATP) it was 11.6 nM; in assay [3] (setting [4]), 11.1 nM.

Regarding `COCCN(C)C(=O)N1CCN(c2ccc(-c3cc(-c4cnn(C)c4)cn4ncc(C#N)c34)cn2)CC1` [Example 130, 4-(5-(3-cyano-6-(1-methyl-1H-pyrazol-4-yl)pyrazolo[1,5-a]pyridin-4-yl)pyridin-2-yl)-N-(2-methoxyethyl)-N-methylpiperazine-1-carboxamide 2,2,2-trifluoroacetate], the IC50 stood at 2250 nM in assay [1]; 20.8 nM in assay [2] (wild type RET, 1 mM ATP); 33 nM in assay [3].

On to `CC(C)CNC(=O)N1CCN(c2ccc(-c3cc(-c4cnn(C)c4)cn4ncc(C#N)c34)cn2)CC1` [Example 133, 4-(5-(3-cyano-6-(1-methyl-1H-pyrazol-4-yl)pyrazolo[1,5-a]pyridin-4-yl)pyridin-2-yl)-N-isobutylpiperazine-1-carboxamide], for which the IC50 in assay [1] is 147 nM; in assay [2] (wild type RET, 1 mM ATP) it was 4.3 nM; in assay [3] (setting [4]), 1.7 nM.

Turning to `CCNC(=O)N1CCN(c2ccc(-c3cc(-c4cnn(C)c4)cn4ncc(C#N)c34)cn2)CC1` [Example 134, 4-(5-(3-cyano-6-(1-methyl-1H-pyrazol-4-yl)pyrazolo[1,5-a]pyridin-4-yl)pyridin-2-yl)-N-ethylpiperazine-1-carboxamide], the IC50 amounted to 320 nM in assay [1]; 5.5 nM in assay [2] (wild type RET, 1 mM ATP); 11.5 nM in assay [3] (setting [4]).

On to `COCCNC(=O)N1CCN(c2ccc(-c3cc(-c4cnn(C)c4)cn4ncc(C#N)c34)cn2)CC1` [Example 135, 4-(5-(3-cyano-6-(1-methyl-1H-pyrazol-4-yl)pyrazolo[1,5-a]pyridin-4-yl)pyridin-2-yl)-N-(2-methoxyethyl)piperazine-1-carboxamide], for which the IC50 came to 1030 nM in assay [1]; 12.8 nM in assay [2] (wild type RET, 1 mM ATP); 35.4 nM in assay [3] (setting [4]).

In the case of `CCN(C)C(=O)N1CCN(c2ccc(-c3cc(-c4cnn(C)c4)cn4ncc(C#N)c34)cn2)CC1` [Example 136, 4-(5-(3-cyano-6-(1-methyl-1H-pyrazol-4-yl)pyrazolo[1,5-a]pyridin-4-yl)pyridin-2-yl)-N-ethyl-N-methylpiperazine-1-carboxamide], the half-inhibitory concentration (IC50) in assay [1] is 1580 nM; in assay [2] (wild type RET, 1 mM ATP), 9.1 nM; in assay [3] (setting [4]), 11.9 nM.

On to `Cn1cc(-c2cc(-c3ccc(N4CCN(S(=O)(=O)NC(C)(C)C)CC4)nc3)c3c(C#N)cnn3c2)cn1` [Example 137, N-(tert-butyl)-4-(5-(3-cyano-6-(1-methyl-1H-pyrazol-4-yl)pyrazolo[1,5-a]pyridin-4-yl)pyridin-2-yl)piperazine-1-sulfonamide], for which the IC50 in assay [1] was determined as 71.3 nM; in assay [2] (wild type RET, 1 mM ATP) it was 8.3 nM; in assay [3] (setting [4]), 5.2 nM.

Regarding `Cn1cc(-c2cc(-c3ccc(N4CCN(C=O)CC4)nc3)c3c(C#N)cnn3c2)cn1` [Example 141, 4-(6-(4-formylpiperazin-1-yl)pyridin-3-yl)-6-(1-methyl-1H-pyrazol-4-yl)pyrazolo[1,5-a]pyridine-3-carbonitrile], the IC50 is 203 nM in assay [1]; 7.4 nM in assay [2] (wild type RET, 1 mM ATP); 13.2 nM in assay [3] (setting [4]).

Regarding `CN(C)C(=O)CN1CCN(c2ccc(-c3cc(-c4cnn(C)c4)cn4ncc(C#N)c34)cn2)CC1` [Example 143, 2-(4-(5-(3-cyano-6-(1-methyl-1H-pyrazol-4-yl)pyrazolo[1,5-a]pyridin-4-yl)pyridin-2-yl)piperazin-1-yl)-N,N-dimethylacetamide 2,2,2-trifluoroacetate], the IC50 in assay [1] turned out to be 1800 nM; in assay [2], 34.1 nM; in assay [3] (setting [4]), 69.8 nM.

Turning to `CC(C)NC(=O)CN1CCN(c2ccc(-c3cc(-c4cnn(C)c4)cn4ncc(C#N)c34)cn2)CC1` [Example 144, 2-(4-(5-(3-cyano-6-(1-methyl-1H-pyrazol-4-yl)pyrazolo[1,5-a]pyridin-4-yl)pyridin-2-yl)piperazin-1-yl)-N-isopropylacetamide 2,2,2-trifluoroacetate], the IC50 was 1680 nM in assay [1], 25.2 nM in assay [2] and 58.9 nM in assay [3] (setting [4]).

As for `CN(C)C(=O)CCN1CCN(c2ccc(-c3cc(-c4cnn(C)c4)cn4ncc(C#N)c34)cn2)CC1` [Example 146, 3-(4-(5-(3-cyano-6-(1-methyl-1H-pyrazol-4-yl)pyrazolo[1,5-a]pyridin-4-yl)pyridin-2-yl)piperazin-1-yl)-N,N-dimethylpropanamide 2,2,2-trifluoroacetate], the IC50 in assay [1] worked out at 736 nM; in assay [2] (wild type RET, 1 mM ATP) it was 12.3 nM; in assay [3], 29 nM.

In the case of `Cn1cc(-c2cc(-c3ccc(N4CCN(CC(O)C(C)(C)C)CC4)nc3)c3c(C#N)cnn3c2)cn1` (stereo not drawn) [Example 148, 4-(6-(4-(2-hydroxy-3,3-dimethylbutyl)piperazin-1-yl)pyridin-3-yl)-6-(1-methyl-1H-pyrazol-4-yl)pyrazolo[1,5-a]pyridine-3-carbonitrile], the IC50 came out at 1060 nM in assay [1]; 19.8 nM in assay [2] (wild type RET, 1 mM ATP); 46.7 nM in assay [3] (setting [4]).

Regarding `COC[C@H](O)CN1CCN(c2ccc(-c3cc(-c4cnn(C)c4)cn4ncc(C#N)c34)cn2)CC1` [Example 151, (R)-4-(6-(4-(2-hydroxy-3-methoxypropyl)piperazin-1-yl)pyridin-3-yl)-6-(1-methyl-1H-pyrazol-4-yl)pyrazolo[1,5-a]pyridine-3-carbonitrile], the IC50 in assay [1] came out at 1430 nM; in assay [2] (wild type RET, 1 mM ATP), 44 nM; in assay [3] (setting [4]), 70.4 nM.

For the molecule `CC(C)C(O)CN1CCN(c2ccc(-c3cc(-c4cnn(C)c4)cn4ncc(C#N)c34)cn2)CC1` (stereo not drawn) [Example 160, 4-(6-(4-(2-hydroxy-3-methylbutyl)piperazin-1-yl)pyridin-3-yl)-6-(1-methyl-1H-pyrazol-4-yl)pyrazolo[1,5-a]pyridine-3-carbonitrile], the IC50 in assay [1] came out at 192 nM; in assay [2] (wild type RET, 1 mM ATP) it was 13.6 nM; in assay [3] (setting [4]) it was 11 nM.

Regarding `Cn1cc(-c2cc(-c3ccc(N4CCC(NC(=O)OC(C)(C)C)CC4)nc3)c3c(C#N)cnn3c2)cn1` [Example 176, tert-butyl (1-(5-(3-cyano-6-(1-methyl-1H-pyrazol-4-yl)pyrazolo[1,5-a]pyridin-4-yl)pyridin-2-yl)piperidin-4-yl)carbamate], the IC50 came to 928 nM in assay [1]; 7.6 nM in assay [2] (wild type RET, 1 mM ATP); 15.3 nM in assay [3] (setting [4]).

Take `Cn1cc(-c2cc(-c3ccc(N4CCC(N)CC4)nc3)c3c(C#N)cnn3c2)cn1` [Example 177, 4-(6-(4-aminopiperidin-1-yl)pyridin-3-yl)-6-(1-methyl-1H-pyrazol-4-yl)pyrazolo[1,5-a]pyridine-3-carbonitrile dihydrochloride]: the IC50 in assay [1] is 1180 nM; in assay [2] (wild type RET, 1 mM ATP) it was 47 nM; in assay [3], 69.9 nM.

Regarding `Cn1cc(-c2cc(-c3ccc(N4CCC(NC(=O)C(C)(C)O)CC4)nc3)c3c(C#N)cnn3c2)cn1` [Example 179, N-(1-(5-(3-cyano-6-(1-methyl-1H-pyrazol-4-yl)pyrazolo[1,5-a]pyridin-4-yl)pyridin-2-yl)piperidin-4-yl)-2-hydroxy-2-methylpropanamide], the IC50 in assay [1] was determined as 547 nM; in assay [2] (wild type RET, 1 mM ATP), 18 nM; in assay [3] (setting [4]), 30.8 nM.

Take `C[C@@H](O)C(=O)NC1CCN(c2ccc(-c3cc(-c4cnn(C)c4)cn4ncc(C#N)c34)cn2)CC1` [Example 181, (R)-N-(1-(5-(3-cyano-6-(1-methyl-1H-pyrazol-4-yl)pyrazolo[1,5-a]pyridin-4-yl)pyridin-2-yl)piperidin-4-yl)-2-hydroxypropanamide]: the IC50 in assay [1] was determined as 1200 nM; in assay [2] (wild type RET, 1 mM ATP), 10.5 nM; in assay [3] (setting [4]), 109 nM.

On to `COCC(=O)NC1CCN(c2ccc(-c3cc(-c4cnn(C)c4)cn4ncc(C#N)c34)cn2)CC1` [Example 183, N-(1-(5-(3-cyano-6-(1-methyl-1H-pyrazol-4-yl)pyrazolo[1,5-a]pyridin-4-yl)pyridin-2-yl)piperidin-4-yl)-2-methoxyacetamide], for which the IC50 in assay [1] was 444 nM; in assay [2] (wild type RET, 1 mM ATP), 11.9 nM; in assay [3] (setting [4]), 15.8 nM.

For the molecule `CC(C)C(=O)NC1CCN(c2ccc(-c3cc(-c4cnn(C)c4)cn4ncc(C#N)c34)cn2)CC1` [Example 185, N-(1-(5-(3-cyano-6-(1-methyl-1H-pyrazol-4-yl)pyrazolo[1,5-a]pyridin-4-yl)pyridin-2-yl)piperidin-4-yl)isobutyramide], the IC50 in assay [1] came to 628 nM; in assay [2] (wild type RET, 1 mM ATP) it was 11.5 nM; in assay [3] (setting [4]), 14.3 nM.

For `CN(C)C(=O)NC1CCN(c2ccc(-c3cc(-c4cnn(C)c4)cn4ncc(C#N)c34)cn2)CC1` [Example 186, 3-(1-(5-(3-cyano-6-(1-methyl-1H-pyrazol-4-yl)pyrazolo[1,5-a]pyridin-4-yl)pyridin-2-yl)piperidin-4-yl)-1,1-dimethylurea], the IC50 in assay [1] is 451 nM; in assay [2] (wild type RET, 1 mM ATP) it was 14.3 nM; in assay [3] (setting [4]), 22.5 nM.

With `CC(C)NC(=O)NC1CCN(c2ccc(-c3cc(-c4cnn(C)c4)cn4ncc(C#N)c34)cn2)CC1` [Example 187, 1-(1-(5-(3-cyano-6-(1-methyl-1H-pyrazol-4-yl)pyrazolo[1,5-a]pyridin-4-yl)pyridin-2-yl)piperidin-4-yl)-3-isopropylurea], the IC50 in assay [1] is 871 nM; in assay [2] (wild type RET, 1 mM ATP), 15.9 nM; in assay [3] (setting [4]) it was 20.4 nM.
